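Five compound concentrations were applied to cells in 96-well plates for 48 hours; endpoints were derived by simple linear interpolation of the resulting dose-response curve. At the TGI there is no net growth.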
How the values were obtained:
Assay in all cases: DTP human tumour cell line panel, 48 h
[1] = system: 786-0 renal
[2] = system: A549 NSCLC
[3] = system: ACHN renal
[4] = system: CAKI-1 renal
[5] = system: CCRF-CEM leukemia
[6] = system: COLO 205 colon
[7] = system: DLD-1 colon
[8] = system: DMS 114 small cell lung
[9] = system: DMS 273 small cell lung
[10] = system: EKVX NSCLC
[11] = system: HCT-116 colon
[12] = system: HCT-15 colon
[13] = system: HL-60(TB) leukemia
[14] = system: HOP-18 NSCLC
[15] = system: HOP-62 NSCLC
[16] = system: HOP-92 NSCLC
[17] = system: HT29 colon
[18] = system: IGROV1 ovarian
[19] = system: K-562 leukemia
[20] = system: KM12 colon
[21] = system: LOX IMVI melanoma
[22] = system: LXFL 529 NSCLC
[23] = system: M14 melanoma
[24] = system: M19-MEL melanoma
[25] = system: MOLT-4 leukemia
[26] = system: NCI-H226 lung
[27] = system: NCI-H23 lung
[28] = system: NCI-H460 lung
[29] = system: NCI-H522 lung
[30] = system: OVCAR-4 ovarian
[31] = system: OVCAR-5 ovarian
[32] = system: OVCAR-8 ovarian
[33] = system: RPMI-8226 leukemia
[34] = system: RXF 393 renal
[35] = system: SF-268 CNS
[36] = system: SF-295 CNS
[37] = system: SF-539 CNS
[38] = system: SK-MEL-2 melanoma
[39] = system: SK-MEL-28 melanoma
[40] = system: SK-MEL-5 melanoma
[41] = system: SK-OV-3 ovarian
[42] = system: SN12C renal
[43] = system: SNB-75 CNS
[44] = system: SNB-78 CNS
[45] = system: SR leukemia
[46] = system: SW-620 colon
[47] = system: TK-10 renal
[48] = system: U251 CNS
[49] = system: UACC-257 melanoma
[50] = system: UACC-62 melanoma
[51] = system: UO-31 renal
[52] = system: XF 498 CNS
[53] = system: A498 renal
[54] = system: HCC-2998 colon
[55] = system: KM20L2 colon
[56] = system: MALME-3M melanoma
[57] = system: OVCAR-3 ovarian
[58] = system: RXF-631 renal
[59] = system: SNB-19 CNS

## O=CC1CCC=CC1NC(=O)OCc1ccccc1 (stereo not given)
[1]
  TGI: > 100 µM
[2]
  TGI: > 100 µM
[3]
  TGI: > 100 µM
[4]
  TGI: > 100 µM
[5]
  TGI: > 100 µM
[6]
  TGI: > 100 µM
[7]
  TGI: > 100 µM
[8]
  TGI: 53.6 µM
[9]
  TGI: > 100 µM
[10]
  TGI: > 100 µM
[11]
  TGI: > 100 µM
[12]
  TGI: > 100 µM
[13]
  TGI: 46.5 µM
[14]
  TGI: > 100 µM
[15]
  TGI: > 100 µM
[16]
  TGI: > 100 µM
[17]
  TGI: > 100 µM
[18]
  TGI: > 100 µM
[19]
  TGI: > 100 µM
[20]
  TGI: > 100 µM
[21]
  TGI: > 100 µM
[22]
  TGI: > 100 µM
[23]
  TGI: > 100 µM
[24]
  TGI: > 100 µM
[25]
  TGI: > 100 µM
[26]
  TGI: > 100 µM
[27]
  TGI: > 100 µM
[28]
  TGI: > 100 µM
[29]
  TGI: > 100 µM
[30]
  TGI: > 100 µM
[31]
  TGI: > 100 µM
[32]
  TGI: 52.3 µM
[33]
  TGI: > 100 µM
[34]
  TGI: > 100 µM
[35]
  TGI: > 100 µM
[36]
  TGI: > 100 µM
[37]
  TGI: 51.9 µM
[38]
  TGI: > 100 µM
[39]
  TGI: > 100 µM
[40]
  TGI: > 100 µM
[41]
  TGI: > 100 µM
[42]
  TGI: > 100 µM
[43]
  TGI: 94.3 µM
[44]
  TGI: > 100 µM
[45]
  TGI: > 100 µM
[46]
  TGI: > 100 µM
[47]
  TGI: > 100 µM
[48]
  TGI: > 100 µM
[49]
  TGI: > 100 µM
[50]
  TGI: > 100 µM
[51]
  TGI: > 100 µM
[52]
  TGI: > 100 µM

## Cc1ccc(NC(=O)CCc2nnc3s/c(=C\c4cccc([N+](=O)[O-])c4)c(=O)n23)cc1
[1]
  TGI: > 100 µM
[53]
  TGI: > 100 µM
[2]
  TGI: > 100 µM
[3]
  TGI: > 100 µM
[4]
  TGI: > 100 µM
[5]
  TGI: > 100 µM
[6]
  TGI: > 100 µM
[7]
  TGI: > 100 µM
[8]
  TGI: > 100 µM
[9]
  TGI: > 100 µM
[10]
  TGI: > 100 µM
[54]
  TGI: > 100 µM
[11]
  TGI: > 100 µM
[12]
  TGI: > 100 µM
[14]
  TGI: > 100 µM
[15]
  TGI: > 100 µM
[16]
  TGI: > 100 µM
[17]
  TGI: > 100 µM
[18]
  TGI: > 100 µM
[19]
  TGI: > 100 µM
[20]
  TGI: > 100 µM
[55]
  TGI: > 100 µM
[21]
  TGI: > 100 µM
[22]
  TGI: > 100 µM
[23]
  TGI: > 100 µM
[24]
  TGI: > 100 µM
[56]
  TGI: > 100 µM
[25]
  TGI: > 100 µM
[26]
  TGI: > 100 µM
[27]
  TGI: > 100 µM
[28]
  TGI: > 100 µM
[29]
  TGI: > 100 µM
[57]
  TGI: > 100 µM
[30]
  TGI: > 100 µM
[31]
  TGI: > 100 µM
[32]
  TGI: > 100 µM
[33]
  TGI: > 100 µM
[34]
  TGI: > 100 µM
[58]
  TGI: > 100 µM
[35]
  TGI: > 100 µM
[36]
  TGI: > 100 µM
[37]
  TGI: > 100 µM
[38]
  TGI: > 100 µM
[39]
  TGI: > 100 µM
[40]
  TGI: > 100 µM
[41]
  TGI: > 100 µM
[42]
  TGI: > 100 µM
[59]
  TGI: > 100 µM
[43]
  TGI: > 100 µM
[44]
  TGI: > 100 µM
[45]
  TGI: > 100 µM
[46]
  TGI: 38.6 µM
[47]
  TGI: > 100 µM
[48]
  TGI: > 100 µM
[49]
  TGI: > 100 µM
[50]
  TGI: > 100 µM
[51]
  TGI: > 100 µM
[52]
  TGI: > 100 µM
